Data on two molecules can be found in patent publication US6878725B2, “Serine protease inhibitors” (Eli Lilly and Company, priority 2001, dated 2005).

Usually melting point stands for the temperature, or range, at which the solid turns liquid.

Molecule `Cl.O=C(N[C@@H](C(=O)N1CCC(Nc2ccncc2)CC1)c1ccccc1)c1ccc2cc[nH]c2c1` gave a melting point of 205 to 215 °C. As to `O=C(N[C@@H](C(=O)N1CCC(Nc2ccccn2)CC1)c1ccccc1)c1ccc2cc[nH]c2c1` [Example 39, 1-(Indole-6-carbonyl-D-phenylglycinyl)-4-(pyridin-2-ylamino)piperidine], the melting point is 128 to 134 °C.
